For one series, the system named is BL21 GOLD cells. The experiment in a line: Aβ1-42 dimerization assay (colony growth). The note with it: for colonies grown on test plates: M9 minimal media with Tmp and IPTG; for colonies grown on negative control plates: M9 minimal media with Tmp; for No. of colonies (CFU): 48-hour incubation. Format: cell-based, E. coli. An excerpt:
Schematic illustrating general principles of using the TBS assay to screen for inhibitors of the initial dimerization event of Aβ1-42. In bacterial cells, endogenous DHFR can be inhibited using the antibiotic trimethoprim, making cells reliant on the modified, exogenous DHFR (top panel). In this setting, if AP-1 binds to the TRE sites in the DHFR, transcription is blocked and no functional DHFR enzyme is produced, resulting in cell death (middle panel). By attaching this basic cJun region to Aβ1-42, a functional DNA binder will be created if two Aβ1-42 peptides dimerize. In the absence of an inhibitor, basic-Aβ1-42 dimerization would lead to blocking of the DHFR gene transcription, resulting in cell death (lower left hand panel). Only cells treated with a successful Aβ1-42 dimerization inhibitor would produce DHFR and so survive, allowing selection for potential therapeutics for treating Alzheimer's Disease (lower right hand panel).
BL21 GOLD cells stably expressing a pREP4 plasmid containing lac inhibitor […] gene were used for the dimerization assay, so that the lac operon could be controlled. Cells were transformed with p300d plasmid containing DHFR with 15 TRE sites under control of the lac operon (described in Example 1), and either a p230d containing Aβ1-42 or constructed basic-Aβ1-42.
BL21 from the 100 μL plates were scraped into LB and selecting antibiotics and grown to an OD600 of 0.5. 100 μL of culture was plated onto positive control, negative control and test plates, as described in Table 3 below.
A covering of cells was seen on both positive control plates, showing that BL21 cells were not affected by scraping and re-plating. Tmp was used to inhibit the endogenous, E. coli DHFR enzyme. […] Two basic-Aβ1-42 expressing colonies and one Aβ1-42 colony grew on these negative control plates. Test plates contained IPTG to bind to lac repressor protein and allow expression of the modified DHFR in the bacteria. There were 63 Aβ1-42 expressing BL21 colonies formed on these plates, which confirmed that the modified DHFR gene allows cells to grow on minimal media. Importantly, only 2 basic-Aβ1-42 expressing colonies grew on test plates, which was consistent with levels of background growth seen on negative control plates.

Series [1] deals with TRE's introduced within the mDHFR gene. The experiment in a line: Transcription-Block Survival (TBS) assay with basic-cJun. Format: cell-based, E. coli. The note with it: M9 minimal media with Tmp and IPTG, protein overexpressed on second plasmid with mDHFR containing 15 TREs. An excerpt:
Fifteen TREs have been introduced into the mDHFR gene. A) The changes to the DNA sequence result in a fully active protein that expresses, folds, and confers survival in M9 minimal media using trimethoprim (TMP) to inhibit bacterial DHFR. […] Expressing mDHFR with IPTG (right hand side plates), generates colonies in A) but not B).
It was next necessary to establish that introduction of an AP-1 component (in this case basic-cJun) would result in binding to the 15 TRE's introduced within the mDHFR gene and therefore failure of the gene to be transcribed.
Three plasmids were used for this assay. These are i) p300-mDHFR (Cm; SEQ ID NO: 42) to express the […] sequence containing mDHFR, which is under control of the lac-operon; ii) p230d-basic-cJun (Amp; SEQ ID NO: 43) which is also under control of the lac-operon; iii) pREP4 (Kan; SEQ ID NO: 44) to express the lac repressor.
Cells were grown under non-selective conditions (i.e. LB/LB agar) containing Cm/Amp/Kan up until the time of the Assay. During TBS Selection Cells are grown in M9 minimal media (Agar or Broth) in the presence of Cm/Amp/Kan, as well as Tmp (to inhibit the bacterial copies of DHFR) and IPTG (to induce expression of mDHFR and bZIP proteins). […]

Series [2] deals with the molecule itself. The experiment in a line: TBS cell survival assay in E. coli, colony formation on M9 agar.
Experimental: Cells were grown under non-selective conditions (i.e. LB/LB agar) containing Cm/Amp/Kan up until the time of the Assay. During TBS Selection Cells are grown in M9 minimal media (Agar or Broth) in the presence of Cm/Amp/Kan, as well as Tmp (to inhibit the bacterial copies of DHFR) and IPTG (to induce expression of mDHFR and bZIP proteins). During Assay selection, media-lacking ITPG is used to serve as a negative control to ensure that cell survival is exclusively driven by the loss on interaction between bZIP target protein and the consensus sequences located within the mDHFR gene.
Where [3] appears, read: Negative control plate: M9 minimal agar, 3.4 μM Tmp, no IPTG.
Setting [4] is: Positive control plate: LB agar, Cm, Kan and Amp.
Where [5] appears, read: Test plate: M9 minimal agar, 3.4 μM Tmp, 1 mM IPTG.

For “basic-Aβ1-42: fusion protein of the basic cJun region and Aβ1-42 (SEQ ID NO: 51)”, the “colonies grown on test plates” value in the series with BL21 GOLD cells came to 2 colonies. Also, the “colonies grown on negative control plates” value in the series on BL21 GOLD cells (no IPTG) is “Two”. Besides, the “No. of colonies (CFU)” value was 2 CFU with BL21 GOLD cells (setting [3]), “Covered” in the series on BL21 GOLD cells (setting [4]) and 2 CFU in the series with BL21 GOLD cells (setting [5]).

For “Aβ1-42: amyloid-β peptide having 42 amino acids (SEQ ID NO: 49), expressed without the basic cJun region [reference compound]”, the “colonies grown on test plates” value in the series with BL21 GOLD cells was 63 colonies. Moreover, the “colonies grown on negative control plates” value in the series with BL21 GOLD cells (no IPTG) was “one”. The entries for the “No. of colonies (CFU)” value with BL21 GOLD cells (setting [3]), in the series with BL21 GOLD cells (setting [4]) and in the series on BL21 GOLD cells (setting [5]) were 1 CFU, “Covered” and 63 CFU, respectively.

B1: basic-cJun (other)
chain: MRIKAERKRMRNRIAASKCRKRKLERIARLEEKVKTLKAQNYELASTANMLREQVAQLGAPHHHHHH
notes: also called AP-1 component; p230d-basic-cJun
In the case of B1, the figures for the “bacterial colony formation in minimal media” value in series [1] and in series [1] (listed as Basic-cJun) were “complete loss of bacterial colonies” and “no colonies grow”, respectively. Also, the binding result in series [2] is given as “binds”.

Source of the values: patent publication US20230146038A1, “DIMERIZATION ASSAY” (The University of Bath, priority 2020, published 2023).
